Results as given in patent publication US11180496B2 (Daewoong Pharmaceutical Co., Ltd., priority 2017, dated 2021).

Assays:
[1] = target: T1, BTK (Homo sapiens, UniProt Q06187); experiment: BTK inhibitory activity, ADP-Glo + BTK Kinase enzyme system kit (Promega); format: biochemical; conditions: BTK enzyme 1 ng/uL, ATP 10 uM, 15 min preincubation, luminescence, duplicate
T1 construct: purchased Promega
Method in brief: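 BTK activity measured by ADP-Glo luminescence: kinase reaction with substrate and 10 uM ATP (final) for 1 h at 30°C, then ADP-Glo reagent 40 min and detection 30 min at 30°C. Run in duplicate; IC50 calculated relative to no-compound and positive controls.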

[2] = target: T2, ITK (Homo sapiens, UniProt Q08881); experiment: ITK inhibitory activity, ADP-Glo + ITK Kinase enzyme system kit (Promega); format: biochemical; conditions: ITK enzyme 0.4 ng/uL, ATP 25 uM, 15 min preincubation, luminescence, duplicate
T2 construct: purchased Promega
T2 sequence (Q08881 1-620): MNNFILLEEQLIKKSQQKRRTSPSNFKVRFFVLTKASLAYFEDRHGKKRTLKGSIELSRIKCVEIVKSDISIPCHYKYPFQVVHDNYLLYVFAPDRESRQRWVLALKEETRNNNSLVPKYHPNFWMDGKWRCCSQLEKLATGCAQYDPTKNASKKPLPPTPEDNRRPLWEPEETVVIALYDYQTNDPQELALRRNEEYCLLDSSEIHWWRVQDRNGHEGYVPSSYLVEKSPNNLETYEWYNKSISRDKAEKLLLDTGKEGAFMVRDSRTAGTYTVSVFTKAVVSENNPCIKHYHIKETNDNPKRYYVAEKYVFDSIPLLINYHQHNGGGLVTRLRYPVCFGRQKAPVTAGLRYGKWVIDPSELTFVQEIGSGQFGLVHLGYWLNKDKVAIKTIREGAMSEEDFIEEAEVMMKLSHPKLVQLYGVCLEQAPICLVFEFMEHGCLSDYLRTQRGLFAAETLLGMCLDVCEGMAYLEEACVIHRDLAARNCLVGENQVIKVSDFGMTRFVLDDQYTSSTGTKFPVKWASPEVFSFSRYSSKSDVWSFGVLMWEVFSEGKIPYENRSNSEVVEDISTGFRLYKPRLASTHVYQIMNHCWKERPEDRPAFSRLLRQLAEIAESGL
Method in brief: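 ITK activity by ADP-Glo luminescence: substrate and ATP (final 25 uM) reacted 1 h at 30° C, then ADP-Glo reagent 40 min and detection reagent 30 min at 30° C. IC50 from duplicates, normalised to no-compound and enzyme-free controls.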

T1 sequence (Q06187 whole entry): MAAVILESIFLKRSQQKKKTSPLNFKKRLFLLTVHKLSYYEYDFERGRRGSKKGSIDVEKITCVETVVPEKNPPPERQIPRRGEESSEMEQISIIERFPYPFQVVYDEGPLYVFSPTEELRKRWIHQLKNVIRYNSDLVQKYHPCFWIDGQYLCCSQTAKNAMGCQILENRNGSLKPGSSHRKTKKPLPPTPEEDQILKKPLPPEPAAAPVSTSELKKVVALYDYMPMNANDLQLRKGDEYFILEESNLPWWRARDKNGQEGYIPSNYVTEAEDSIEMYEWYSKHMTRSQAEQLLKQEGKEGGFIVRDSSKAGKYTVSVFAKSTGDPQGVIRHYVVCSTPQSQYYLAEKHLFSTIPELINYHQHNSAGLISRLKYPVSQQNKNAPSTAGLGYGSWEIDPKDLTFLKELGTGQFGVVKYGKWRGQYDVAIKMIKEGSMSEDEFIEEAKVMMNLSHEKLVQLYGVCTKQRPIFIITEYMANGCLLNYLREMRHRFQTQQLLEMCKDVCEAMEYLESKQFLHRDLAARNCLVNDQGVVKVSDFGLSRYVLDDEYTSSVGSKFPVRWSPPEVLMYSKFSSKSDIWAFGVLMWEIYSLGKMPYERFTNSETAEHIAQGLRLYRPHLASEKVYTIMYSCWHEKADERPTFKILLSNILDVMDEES

| IC50 [1] | IC50 [2] | SMILES |
| --- | --- | --- |
| 32 nM | 141 nM | C=CC(=O)N1CCC[C@@H](n2nc(C(=O)Nc3nc4ccc(Br)cc4o3)c3c(N)nccc32)C1 [Example 73, (R)-1-(1-acryloylpiperidin-3-yl)-4-amino-N-(6-bromobenzo[d]oxazol-2-yl)-1H-pyrazolo[4,3-c]pyridine-3-carboxamide] |
| 1.5 nM | 11.3 nM | C=CC(=O)N1CCCC(n2nc(-c3ccc(Oc4ccccc4)cc3)c3c(N)ncc(Cl)c32)C1 (stereo not shown) [Example 9, 1-(3-(4-amino-7-chloro-3-(4-phenoxyphenyl)-1H-pyrazolo[4,3-c]pyridin-1-yl)piperidin-1-yl)prop-2-en-1-one] |
| 1.5 nM | 39.5 nM | C=CC(=O)N1CCC[C@@H](n2nc(-c3ccc(C(=O)Nc4ccccc4)cc3)c3c(N)ncc(I)c32)C1 [Example 25, (R)-4-(1-(1-acryloylpiperidin-3-yl)-4-amino-7-iodo-1H-pyrazolo[4,3-c]pyridin-3-yl)-N-phenyl benzamide] |
| > 400 nM | > 1000 nM | CC#CC(=O)N1CC[C@H](n2nc(-c3ccc(C(=O)Nc4ccccc4)cc3)c3c(N)nccc32)C1 [Example 48, (S)-4-(4-amino-1-(1-but-2-ynoylpyrrolidin-3-yl)-1H-pyrazolo[4,3-c]pyridin-3-yl)-N-phenylbenzamide] |
| 2.5 nM | 146 nM | C=CC(=O)N1CCC[C@@H](n2nc(-c3ccc(C(=O)Nc4ccccn4)cc3)c3c(N)ncc(Nc4ccccc4)c32)C1 [Example 43, (R)-4-(1-(1-acryloylpiperidin-3-yl)-4-amino-7-(phenylamino)-1H-pyrazolo[4,3-c]pyridin-3-yl)-N-(pyridin-2-yl)benzamide] |
| 2.5 nM | 131 nM | C=CC(=O)N1CCC[C@@H](n2nc(-c3ccc(C(=O)Nc4ccccc4)cc3)c3c(N)nccc32)C1 [Example 22, (R)-4-(1-(1-acryloylpiperidin-3-yl)-4-amino-1H-pyrazolo[4,3-c]pyridin-3-yl)-N-phenyl benzamide] |
| 5.1 nM | > 1000 nM | C=CC(=O)N1CCC(n2nc(-c3ccc(Oc4ccccc4)cc3)c3c(N)ncc(-c4cnn(C)c4)c32)CC1 [Example 13, 1-(4-(4-amino-7-(1-methyl-1H-pyrazol-4-yl)-3-(4-phenoxyphenyl)-1H-pyrazolo[4,3-c]pyridin-1-yl)piperidin-1-yl)prop-2-en-1-one] |
| 77.5 nM | > 1000 nM | C=C(C)C(=O)N1CCC[C@@H](n2nc(-c3ccc(C(=O)Nc4ccccn4)cc3F)c3c(N)nccc32)C1 [Example 54, (R)-4-(4-amino-1-(1-methacryloylpiperidin-3-yl)-1H-pyrazolo[4,3-c]pyridin-3-yl)-3-fluoro-N-(pyridin-2-yl)benzamide] |
| 1 nM | 26.4 nM | C=CC(=O)N1CCC[C@@H](n2nc(-c3ccc(C(=O)Nc4ccccn4)cc3)c3c(N)nccc32)C1 [Example 18, (R)-4-(1-(1-acryloylpiperidin-3-yl)-4-amino-1H-pyrazolo[4,3-c]pyridin-3-yl)-N-(pyridin-2-yl)benzamide] |
| 0.5 nM | 4.3 nM | C=CC(=O)N1CCC[C@@H](n2nc(-c3ccc(C(=O)Nc4ccccn4)cc3F)c3c(N)ncc(C#N)c32)C1 [Example 53, (R)-4-(1-(1-acryloylpiperidin-3-yl)-4-amino-7-cyano-1H-pyrazolo[4,3-c]pyridin-3-yl)-3-fluoro-N-(pyridin-2-yl)benzamide] |
| 1.3 nM | 2.1 nM | C=CC(=O)N1CCC[C@@H](n2nc(-c3ccc(C(=O)Nc4ccccn4)cc3F)c3c(N)ncc(I)c32)C1 [Example 50, (R)-4-(1-(1-acryloylpiperidin-3-yl)-4-amino-7-iodo-1H-pyrazolo[4,3-c]pyridin-3-yl)-3-fluoro-N-(pyridin-2-yl)benzamide] |
| 1.3 nM | 1.3 nM | C=CC(=O)N1CCC[C@@H](n2nc(-c3ccc(C(=O)Nc4ccccn4)cc3Cl)c3c(N)ncc(C#N)c32)C1 [Example 66, (R)-4-(1-(1-acryloylpiperidin-3-yl)-4-amino-7-cyano-1H-pyrazolo[4,3-c]pyridin-3-yl)-3-chloro-N-(pyridin-2-yl)benzamide] |
| 1 nM | 2.7 nM | C=CC(=O)N1CCC[C@@H](n2nc(-c3ccc(Oc4ccccc4)cc3)c3c(N)ncc(I)c32)C1 [Example 16, (R)-1-(3-(4-amino-7-iodo-3-(4-phenoxyphenyl)-1H-pyrazolo[4,3-c]pyridin-1-yl)piperidin-1-yl)prop-2-en-1-one] |
| 100 nM | 54.9 nM | C=CC(=O)N1CCC[C@@H](n2nc(C(=O)Nc3ccc4c(c3)OCCO4)c3c(N)ncc(Cl)c32)C1 [Example 79, (R)-1-(1-acryloylpiperidin-3-yl)-4-amino-7-chloro-N-(2,3-di hydrobenzo[b][1,4]dioxin-6-yl)-1H-pyrazolo[4,3-c]pyridine-3-carboxamide] |
